According to ChEMBL document CHEMBL1697781, “Assessment of the health effects of chemicals in humans: II. Construction of an adverse effects database for QSAR modeling” (Curr Drug Discov Technol, 2004):

What was measured:
Conditions in all cases: human; call rule not given here
[1] = tested on: Hepatotoxicity; assay: FDA HLAED, liver enzyme composite activity
[2] = tested on: Hepatotoxicity; assay: FDA HLAED, alkaline phosphatase increase
[3] = tested on: Hepatotoxicity; assay: FDA HLAED, serum glutamic oxaloacetic transaminase (SGOT) increase
[4] = tested on: Hepatotoxicity; assay: FDA HLAED, serum glutamic pyruvic transaminase (SGPT) increase
[5] = tested on: Hepatotoxicity; assay: FDA HLAED, lactate dehydrogenase (LDH) increase
[6] = tested on: Hepatotoxicity; assay: FDA HLAED, gamma-glutamyl transferase (GGT) increase
Wherever GGT Increase - Index Value is given: reference of the scale not given here.
Wherever LDH Increase - Index Value is given: reference of the scale not given here.

Structure (SMILES) | Composite Activity - Active [1] | Composite Activity - Marginal [1] | Composite Activity - Score [1] | Alkaline Phosphatase Increase - Activity Score [2] | Alkaline Phosphatase Increase - Index Value [2] | Alkaline Phosphatase Increase - Number of Reports [2] | SGOT Increase - Activity Score [3] | SGOT Increase - Index Value [3] | SGOT Increase - Number of Reports [3] | SGPT Increase - Activity Score [4] | SGPT Increase - Index Value [4] | SGPT Increase - Number of Reports [4] | LDH Increase - Activity Score [5] | LDH Increase - Index Value [5] | LDH Increase - Number of Reports [5] | GGT Increase - Activity Score [6] | GGT Increase - Index Value [6] | GGT Increase - Number of Reports [6] | also measured
CCOC(=O)[C@H](CCc1ccccc1)N[C@@H](C)C(=O)N1[C@H](C(=O)O)C[C@@H]2CCC[C@@H]21 | 0 | 0 | Inactive | Inactive | 1.1 | >= 4 | Inactive | 0.8 | < 4 | Inactive | 0.5 | < 4 | Inactive | 0.5 | < 4 | Inactive | 1.4 | >= 4 | 
FC(F)OC(F)C(F)(F)F (stereo not drawn) | 0 | 0 | Inactive | Inactive | 0.3 | < 4 | Inactive | 1.3 | >= 4 | Inactive | 0.8 | < 4 | Inactive | 0.5 | < 4 | Inactive | 0.5 | < 4 | 
CCOC(=O)[C@H](CCc1ccccc1)N[C@@H](C)C(=O)N1Cc2ccccc2C[C@H]1C(=O)O | 0 | 0 | Inactive | Inactive | 1.4 | >= 4 | Inactive | 1.1 | >= 4 | Inactive | 1.2 | >= 4 | Inactive | 0.4 | < 4 | Inactive | 1.4 | >= 4 | 
CCOC(=O)[C@H](CCc1ccccc1)N[C@@H](C)C(=O)N1CCC[C@H]1C(=O)O | 0 | 0 | Inactive | Inactive | 0.9 | >= 4 | Inactive | 1 | >= 4 | Inactive | 0.8 | >= 4 | Inactive | 0.6 | >= 4 | Inactive | 0.2 | >= 4 | 
COc1ccc(CCN(C)CCCC(C#N)(c2ccc(OC)c(OC)c2)C(C)C)cc1OC (stereo not drawn) | 0 | 0 | Inactive | Inactive |  | >= 4 |  |  |  | Inactive |  | < 4 | Inactive |  | < 4 | Inactive |  | < 4 | 
Cn1cnc([N+](=O)[O-])c1Sc1ncnc2nc[nH]c12 [AZATHIOPRINE] |  |  |  | Active | 4.5 | >= 4 | Active | 5 | >= 4 | Active | 5.6 | >= 4 |  |  |  | Marginally Active | 3.3 | >= 4 | Composite Activity - Active ([1]; Liver): 3; Composite Activity - Marginal ([1]; Liver): 1; Composite Activity - Score ([1]; Liver): Active
O=NN(CCCl)C(=O)NCCCl [CARMUSTINE] | 1 | 0 |  |  |  |  |  |  |  |  |  |  | Active | 14.6 | >= 4 |  |  |  | 
